As a reminder, the IC50 is the concentration needed to halve the response being measured.

Each structure is given as a SMILES string. Where two headings read alike, the source gives them in different places.

For assay [1], the target named is CDK4/cyclin D1 (Homo sapiens (Human), UniProt P11802). Put plainly: CDK4/cyclin D1 enzymatic activity assay (TR-FRET, phosphorylation of pRb at Ser780). The class given is biochemical. The note with it: 0.3 nM CDK4/cyclin D1, 150 nM biotin-pRb (773-924), 3 μM ATP, 60 min at 22° C.; read-out: Biochemical CDK4 enzyme IC50. Put shortly:
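Phosphorylation at pRb Ser780, detected by TR-FRET, gave IC50s and kinetics. Enzyme: baculovirus/Sf21-expressed human CDK4/cyclin D1. ATP at 3 μM initiated the reaction; EDTA (pH 8.0) stopped it after 60 min at 22° C.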

Assay [2] concerns the target CDK1/cyclin B (Homo sapiens (Human), UniProt P06493). Description: CDK1/cyclin B enzymatic activity assay (IMAP-FP). The class given is biochemical. The note with it: […] CDK1/cyclin B, 100 nM Tamra Histone-H1 peptide, 20 μM ATP, 120 min at room temperature; read-out: Biochemical CDK1 enzyme IC50. An excerpt: CDK1/Cyclin B Enzymatic Activity Assay
A 384-well microtiter IMAP-FP™ (Molecular Devices Trade Mark Technology) endpoint assay was used for CDK1/cyclin B kinase activity measurements. The same assay was used for IC50 determination of small molecule inhibitors.

The subject of assay [3] is phosphorylation of pRb at the Ser780 site in JeKo-1 mantle cell lymphoma cells. Put plainly: CDK4 cellular assay: ELISA of pRb phosphorylation at Ser780 in JeKo-1 cells. The class given is cell-based. The conditions noted are these: Homo sapiens. Background: An ELISA detects its analyte on a solid surface through an enzyme-linked reagent.
Where [4] appears, read: JeKo-1, JeKo-1 cells, p-pRb % inhibition adjusted with total pRb levels, read-out: Normalized cellular ppRb inhibition IC50.
Setting [5] is: JeKo-1, JeKo-1 cells, p-pRb Ser780 ELISA, non-normalized, read-out: Cellular ppRb inhibition IC50.
Where [6] appears, read: JeKo-1 cells, p-pRb % inhibition adjusted with total pRb levels, read-out: Normalized cellular ppRb inhibition IC50.
[7] abbreviates: JeKo-1 cells, p-pRb Ser780 ELISA, non-normalized, read-out: Cellular ppRb inhibition IC50.

Sequence of CDK4/cyclin D1 (P11802 whole entry): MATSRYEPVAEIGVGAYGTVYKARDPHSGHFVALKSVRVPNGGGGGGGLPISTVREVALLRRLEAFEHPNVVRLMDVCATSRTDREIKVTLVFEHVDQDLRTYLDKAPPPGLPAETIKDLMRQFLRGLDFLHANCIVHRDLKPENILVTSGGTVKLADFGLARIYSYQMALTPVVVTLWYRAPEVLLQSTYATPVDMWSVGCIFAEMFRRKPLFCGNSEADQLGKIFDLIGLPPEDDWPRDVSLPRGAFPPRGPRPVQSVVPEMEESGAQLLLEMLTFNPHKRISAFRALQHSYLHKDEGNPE
Sequence of CDK4/cyclin D1 (P24385 whole entry partner): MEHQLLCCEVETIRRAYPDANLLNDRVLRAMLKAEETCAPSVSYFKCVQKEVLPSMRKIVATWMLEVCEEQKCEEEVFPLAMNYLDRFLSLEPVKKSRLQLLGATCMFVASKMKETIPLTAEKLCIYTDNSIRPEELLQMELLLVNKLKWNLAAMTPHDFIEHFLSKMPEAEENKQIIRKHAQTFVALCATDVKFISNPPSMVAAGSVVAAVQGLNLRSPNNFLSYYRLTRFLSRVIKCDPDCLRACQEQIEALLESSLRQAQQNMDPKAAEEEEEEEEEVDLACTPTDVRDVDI
Sequence of CDK1/cyclin B (P06493 whole entry, species assumed): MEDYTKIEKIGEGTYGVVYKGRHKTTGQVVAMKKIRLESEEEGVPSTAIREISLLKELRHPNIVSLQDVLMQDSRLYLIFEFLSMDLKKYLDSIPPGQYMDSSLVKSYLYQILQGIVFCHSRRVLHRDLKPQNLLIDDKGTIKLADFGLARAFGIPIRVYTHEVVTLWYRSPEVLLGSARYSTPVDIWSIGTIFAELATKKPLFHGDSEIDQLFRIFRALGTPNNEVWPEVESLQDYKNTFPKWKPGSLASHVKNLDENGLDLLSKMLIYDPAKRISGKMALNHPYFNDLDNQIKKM
Sequence of CDK1/cyclin B (P14635 whole entry partner, species assumed): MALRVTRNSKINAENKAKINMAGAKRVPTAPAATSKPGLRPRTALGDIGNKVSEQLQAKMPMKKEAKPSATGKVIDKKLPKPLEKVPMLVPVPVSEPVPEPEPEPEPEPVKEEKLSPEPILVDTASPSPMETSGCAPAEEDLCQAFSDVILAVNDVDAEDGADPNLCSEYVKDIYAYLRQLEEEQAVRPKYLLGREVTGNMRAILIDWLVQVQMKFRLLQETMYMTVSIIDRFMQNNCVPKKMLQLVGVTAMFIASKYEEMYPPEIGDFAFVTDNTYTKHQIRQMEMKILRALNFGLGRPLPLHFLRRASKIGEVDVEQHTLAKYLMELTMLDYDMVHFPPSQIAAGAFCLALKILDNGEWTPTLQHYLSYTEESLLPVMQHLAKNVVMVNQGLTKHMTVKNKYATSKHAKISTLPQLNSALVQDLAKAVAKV

With `CC(CO)N1C2CCC1CN(C(=O)c1ccc(Nc3ncc4cc(C(=O)N(C)C)n(C5CCCC5)c4n3)nc1)C2` (centres unmarked) [Example 35, 7-cyclopentyl-2-(5-(8-(1-hydroxypropan-2-yl)-3,8-diazabicyclo[3.2.1]octane-3-carbonyl)pyridin-2-ylamino)-N,N-dimethyl-7H-pyrrolo[2,3-d]pyrimidine-6-carboxamide], the IC50 in assay [1] is 26 nM; in assay [2] it was more than 15 µM; in assay [3] (setting [4]), 197 nM; in assay [3] (setting [5]), 69 nM.

For the molecule `CN(C)C(=O)c1cc2cnc(Nc3ccc(C(=O)N4C[C@H]5C[C@@H]4CN5)cn3)nc2n1C1CCCC1` [Example 49, 7-Cyclopentyl-2-[5-((R,R)-2,5-diaza-bicyclo[2.2.1]heptane-2-carbonyl)-pyridin-2-ylamino]-7H-pyrrolo[2,3-d]pyrimidine-6-carboxylic acid dimethylamide], the IC50 in assay [1] is 45 nM; in assay [2], more than 15 µM; in assay [3] (setting [4]) it was 52 to 431 nM; in assay [3] (setting [5]) it was 44 to 231 nM.

In the case of `CN1C[C@@H]2CC(=O)N(c3ccc(Nc4ncc5cc(C(=O)N(C)C)n(C6CCCCCC6)c5n4)nc3)C[C@@H]2C1` [Example 93, 7-cycloheptyl-N,N-dimethyl-2-(5-((3aS,7aR)-2-methyl-6-oxotetrahydro-1H-pyrrolo[3,4-c]pyridin-5(6H,7H,7aH)-yl)pyridin-2-ylamino)-7H-pyrrolo[2,3-d]pyrimidine-6-carboxamide], the IC50 in assay [1] is less than 5 nM; in assay [2] it was more than 15 µM; in assay [3] (setting [4]) it was 20 nM; in assay [3] (setting [5]) it was 8 nM.

Turning to `CN1CCCC2(CC1)CN(c1ccc(Nc3ncc4cc(C(=O)N(C)C)n(C5CCCC5)c4n3)nc1)C(=O)O2` (centres unmarked) [Example 104, 7-Cyclopentyl-2-[5-(8-methyl-2-oxo-1-oxa-3,8-diaza-spiro[4.6]undec-3-yl)-pyridin-2-ylamino]-7H-pyrrolo[2,3-d]pyrimidine-6-carboxylic acid dimethylamide], the IC50 in assay [1] is 20 nM; in assay [2], more than 15 µM; in assay [3] (setting [6]), 64 nM; in assay [3] (setting [7]), 29 nM.

Turning to `CN(C)C(=O)c1cc2cnc(Nc3ccc(N4CC5(CC4=O)CC4CCC(C5)N4)cn3)nc2n1C1CCCC1` (centres unmarked) [Example 118, 7-cyclopentyl-N,N-dimethyl-2-(5-(5′-oxo-8-azaspiro[bicyclo[3.2.1]octane-3,3′-pyrrolidine]-1′-yl)pyridin-2-ylamino)-7H-pyrrolo[2,3-d]pyrimidine-6-carboxamide], the IC50 in assay [1] was 5 to 14 nM; in assay [2], more than 15 µM; in assay [3] (setting [6]), 47 to 153 nM; in assay [3] (setting [7]) it was 34 to 147 nM.

Values taken from US8957074B2 (Novartis AG, priority 2010, dated 2015).
